In patent US20240246968A1, “SMALL MOLECULE INHIBITORS OF KRAS G12C MUTANT” (Merck Sharp & Dohme LLC, priority 2021, published 2024):

Key:
[1] = molecular target: Gppcp-bound recombinant K-Ras4B G12C mutant protein (amino acids 1-169, C51S/C80L/C118S) (Homo sapiens, UniProt P01116, C118S/C51S/C80L/G12C); assay: KRASG12C binding assay (LC-MS, compound binding rate); conditions: test compound final concentration 0.5 μM, 25° C., 1 hour
How it was run: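 Covalent adduct formation measured by deconvoluted intact-mass LC-MS after 1 h at 25 °C with compound at 0.5 μM final and 50 nM Gppcp-loaded KRAS G12C (residues 1-169, C51S/C80L/C118S). Buffer: TBS, 0.1 mM TCEP, 0.25 mM MgCl2, 50 μM Gppcp. Binding % = one-molecule adduct/(unbound + all adducts), binned A ≥80, B 60–80, C 40–60, D 20–40, E <20.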

[2] = molecular target: T1, interaction between recombinant K-Ras4B G12C mutant protein and cRAF RAS-binding domain (cRAF-RBD) (Homo sapiens, UniProt P01116, G12C); assay: Inhibitory activity on interaction between KRAS G12C and cRAF (Alpha technology); assay type: biochemical; conditions: GMPPNP-bound KRAS G12C incubated with compound at 25° C. for 1 hour, then cRAF-RBD; Alpha signal
T1 construct: made in house; host or cells: E. coli
How it was run: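 Alpha readout of cRAF-RBD (aa 50-132) binding to KRAS G12C (aa 1-169) after 1.5 h RT, following 1 h, 25° C compound preincubation with GMPPNP-bound protein (pH 7.5 Tris, 1 mM MgCl2, TCEP, Tween 20). IC50 fitted from titrations, with GDP-bound KRAS as 100% and DMSO as 0% inhibition.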

MIA PaCa-2 cells = assay: Growth inhibition activity on KRAS-G12C mutant cell line (MIA PaCa-2), CellTiter-Glo 3D; assay type: cell-based, human; conditions: Homo sapiens, MIA PaCa-2, 72 h, MIA PaCa-2, 3-day culture with compound
How it was run: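 Luminescence readout (CellTiter-Glo 3D) after 3 days of compound treatment at 37 °C, 5% CO2, 0.2% final DMSO, gave % growth inhibition versus no-compound wells, from which IC50 (nM) was derived; cells had been plated in 10% FBS RPMI1640 one day before dosing.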

SMILES | IC50 [2] [nM] | IC50 (MIA PaCa-2 cells) [nM] | binding rate [1]
Cc1nc2cc(-c3cccn4c(C(=O)c5cc(F)c(NC(=O)/C=C/CN[C@H]6CC[C@H](O)CC6)c(F)c5)ccc34)c(C(F)(F)F)cc2n1C [Example 55] | 41 | 88 | A (A binding rate of 80% or more is rated “A”)
CO[C@H]1CC[C@H](NC/C=C/C(=O)Nc2c(F)cc(C(=O)c3ccc4c(-c5c(C)cc6c(nc(CO)n6C)c5Cl)cccn34)cc2F)CC1 [Example 58] | 35 | 69 | A (A binding rate of 80% or more is rated “A”)
CO[C@H]1CC[C@H](NC/C=C/C(=O)Nc2c(F)cc(C(=O)c3ccc4c(-c5c(C)cc6c(nc(COC(=O)/C=C/CN[C@H]7CC[C@H](OC)CC7)n6C)c5Cl)cccn34)cc2F)CC1 [Example 59, (4-chloro-5-(3-(3,5-difluoro-4-((E)-4-(((1r,4r)-4-methoxycyclohexyl)amino)but-2-enamido)benzoyl)indolizin-8-yl)-1,6-dimethyl-1H-benzo[d]imidazol-2-yl)methyl (E)-4-(((1r,4r)-4-methoxycyclohexyl)amino)but-2-enoate] | 34 | 230 | A (A binding rate of 80% or more is rated “A”)
CO[C@H]1CC[C@H](NC/C=C/C(=O)Nc2c(F)cc(C(=O)c3ccc4c(-c5c(C(F)F)cc6c(nc(C)n6C)c5Cl)cccn34)cc2F)CC1 [Example 64, (E)-N-(4-(8-(4-chloro-6-(difluoromethyl)-1,2-dimethyl-1H-benzo[d]imidazol-5-yl)indolizine-3-carbonyl)-2,6-difluorophenyl)-4-(((1r,4r)-4-methoxycyclohexyl)amino)but-2-enamide] | 46 | 25 | A (A binding rate of 80% or more is rated “A”)
Cc1nc2cc(-c3cccn4c(C(=O)c5cc(F)c(NC(=O)/C=C/CNC6CCCCC6CO)c(F)c5)ccc34)c(C(F)(F)F)cc2n1C (stereo not drawn) [Example 65, (E)-N-(4-(8-(1,2-dimethyl-6-(trifluoromethyl)-1H-benzo[d]imidazol-5-yl)indolizine-3-carbonyl)-2,6-difluorophenyl)-4-((2-(hydroxymethyl)cyclohexyl)amino)but-2-enamide] | 76 | 190 | A (A binding rate of 80% or more is rated “A”)
CO[C@H]1CC[C@H](NC/C=C/C(=O)Nc2c(F)cc(C(=O)c3ccc4c(-c5c(C(F)(F)F)cc6c(nc(CO)n6C)c5Cl)cccn34)cc2F)CC1 [Example 67, (E)-N-(4-(8-(4-chloro-2-(hydroxymethyl)-1-methyl-6-(trifluoromethyl)-1H-benzo[d]imidazol-5-yl)indolizine-3-carbonyl)-2,6-difluorophenyl)-4-(((1r,4r)-4-methoxycyclohexyl)amino)but-2-enamide] | 38 | 51 | A (A binding rate of 80% or more is rated “A”)
CO[C@H]1CC[C@H](NC/C=C/C(=O)Nc2c(F)cc(C(=O)c3ccc4c(-c5c(C(F)(F)F)cc6c(nc(CF)n6C)c5Cl)cccn34)cc2F)CC1 [Example 68] | 77 | 67 | A (A binding rate of 80% or more is rated “A”)
Cc1nc2cc(-c3cccn4c(C(=O)c5cc(F)c(NC(=O)/C=C/CNC6(CO)CCCCC6)c(F)c5)ccc34)c(C(F)(F)F)cc2n1C [Example 69, (E)-N-(4-(8-(1,2-dimethyl-6-(trifluoromethyl)-1H-benzo[d]imidazol-5-yl)indolizine-3-carbonyl)-2,6-difluorophenyl)-4-((1-(hydroxymethyl)cyclohexyl)amino)but-2-enamide] | 87 | 340 | A (A binding rate of 80% or more is rated “A”)
Cc1nc2cc(-c3cccn4c(C(=O)c5cc(F)c(NC(=O)/C=C/CNC6(CO)CCOCC6)c(F)c5)ccc34)c(C(F)(F)F)cc2n1C [Example 70, (E)-N-(4-(8-(1,2-dimethyl-6-(trifluoromethyl)-1H-benzo[d]imidazol-5-yl)indolizine-3-carbonyl)-2,6-difluorophenyl)-4-((4-(hydroxymethyl)tetrahydro-2H-pyran-4-yl)amino)but-2-enamide] | 70 | 210 | A (A binding rate of 80% or more is rated “A”)
Cc1cc2c(nc(CC(N)=O)n2C)c(Cl)c1-c1cccn2c(C(=O)c3cc(F)c(NC(=O)/C=C/CNC(C)(C)C)c(F)c3)ccc12 [Example 73, (E)-N-(4-(8-(2-(2-amino-2-oxoethyl)-4-chloro-1,6-dimethyl-1H-benzo[d]imidazol-5-yl)indolizine-3-carbonyl)-2,6-difluorophenyl)-4-(tert-butylamino)but-2-enamide] | 73 | 300 | A (A binding rate of 80% or more is rated “A”)
Cc1cc2c(nc(CC#N)n2C)c(Cl)c1-c1cccn2c(C(=O)c3cc(F)c(NC(=O)/C=C/CNC(C)(C)C)c(F)c3)ccc12 [Example 74, (E)-4-(tert-butylamino)-N-(4-(8-(4-chloro-2-(cyanomethyl)-1,6-dimethyl-1H-benzo[d]imidazol-5-yl)indolizine-3-carbonyl)-2,6-difluorophenyl)but-2-enamide] | 64 | 65 | A (A binding rate of 80% or more is rated “A”)
CO[C@H]1CC[C@H](NC/C=C/C(=O)Nc2c(F)cc(C(=O)c3cc(I)c4c(-c5c(C)cc6c(nc(C)n6C)c5Cl)cccn34)cc2F)CC1 [Example 75, (E)-N-(4-(8-(4-chloro-1,2,6-trimethyl-1H-benzo[d]imidazol-5-yl)-1-iodoindolizine-3-carbonyl)-2,6-difluorophenyl)-4-(((1r,4r)-4-methoxycyclohexyl)amino)but-2-enamide] | 37 | 230 | A (A binding rate of 80% or more is rated “A”)

The next lines start with results.

IC50 [2] [nM] | IC50 (MIA PaCa-2 cells) [nM] | SMILES | binding rate [1]
67 | 130 | CO[C@H]1C[C@H](NC/C=C/C(=O)Nc2c(F)cc(C(=O)c3ccc4c(-c5cc6nc(C)n(C)c6cc5C(F)(F)F)cccn34)cc2F)C1 [Example 54, (E)-N-(4-(8-(1,2-dimethyl-6-(trifluoromethyl)-1H-benzo[d]imidazol-5-yl)indolizine-3-carbonyl)-2,6-difluorophenyl)-4-(((1r,3r)-3-methoxycyclobutyl)amino)but-2-enamide] | A (A binding rate of 80% or more is rated “A”)
66 | 140 | Cc1nc2cc(-c3cccn4c(C(=O)c5cc(F)c(NC(=O)/C=C/CNC6(C)CC6)c(F)c5)ccc34)c(C(F)(F)F)cc2n1C [Example 62, (E)-N-(4-(8-(1,2-dimethyl-6-(trifluoromethyl)-1H-benzo[d]imidazol-5-yl)indolizine-3-carbonyl)-2,6-difluorophenyl)-4-((1-methylcyclopropyl)amino)but-2-enamide] | A (A binding rate of 80% or more is rated “A”)
71 | 400 | Cc1nc2cc(-c3cccn4c(C(=O)c5cc(F)c(NC(=O)/C=C/CNC6CCCCC6O)c(F)c5)ccc34)c(C(F)(F)F)cc2n1C (stereo not drawn) [Example 63, (E)-N-(4-(8-(1,2-dimethyl-6-(trifluoromethyl)-1H-benzo[d]imidazol-5-yl)indolizine-3-carbonyl)-2,6-difluorophenyl)-4-((2-hydroxycyclohexyl)amino)but-2-enamide] | A (A binding rate of 80% or more is rated “A”)
70 | 97 | Cc1nc2cc(-c3cccn4c(C(=O)c5cc(F)c(NC(=O)/C=C/CNC6CCOC(C)(C)C6)c(F)c5)ccc34)c(C(F)(F)F)cc2n1C (stereo not drawn) [Example 66] | A (A binding rate of 80% or more is rated “A”)
89 | 100 | Cc1nc2cc(-c3cccn4c(C(=O)c5cc(F)c(NC(=O)/C=C/CNC6CCN(C)C(=O)C6)c(F)c5)ccc34)c(C(F)(F)F)cc2n1C (stereo not drawn) [Example 72, (E)-N-(4-(8-(1,2-dimethyl-6-(trifluoromethyl)-1H-benzo[d]imidazol-5-yl)indolizine-3-carbonyl)-2,6-difluorophenyl)-4-((1-methyl-2-oxopiperidin-4-yl)amino)but-2-enamide] | A (A binding rate of 80% or more is rated “A”)
75 | 300 | Cc1nc2cc(-c3cccn4c(C(=O)c5cc(F)c(NC(=O)/C=C/CNC(C)(C)CF)c(F)c5)ccc34)c(C(F)(F)F)cc2n1C [Example 76, (E)-N-(4-(8-(1,2-dimethyl-6-(trifluoromethyl)-1H-benzo[d]imidazol-5-yl)indolizine-3-carbonyl)-2,6-difluorophenyl)-4-((1-fluoro-2-methylpropan-2-yl)amino)but-2-enamide] | A (A binding rate of 80% or more is rated “A”)
